The values that follow come from publication PMC6237183 (Nature structural & molecular biology, 2018).

One experiment concerns the target 5-HT2BR wild-type (Homo sapiens, UniProt P41595). Put plainly: Gq-mediated calcium flux FLIPR assay. The settings on record: for Gq calcium flux Emax: normalized to percent 5-HT stimulation; for pEC50: agonist mode, N=3. (A change in cytosolic calcium serves as a functional read-out for many receptors and channels.)
Experiment [1] concerns the target T1, 5-HT2BR L362F^7.35 (Homo sapiens, UniProt P41595, L362F). Description: [3H]-LSD dissociation radioligand binding assay. Particulars: L362F^7.35 vs WT.
Experiment [2] addresses T1, 5-HT2BR L362F^7.35. The settings on record: L362F^7.35 mutant.
The target of experiment [3] is T1, 5-HT2BR L362F^7.35. Put plainly: BRET β-arrestin2 recruitment assay. Particulars: L362F^7.35 mutant. (In general: BRET reads energy transfer from a luciferase to a nearby fluorophore.)
For the next experiment, the target named is 5-HT2BR L362A^7.35 (Homo sapiens, UniProt P41595, L362A). Put plainly: Gq-mediated calcium flux FLIPR assay. Particulars: L362A^7.35 mutant, % 5-HT.
5-HT2BR L362A^7.35, sequence (P41595 whole entry L362A): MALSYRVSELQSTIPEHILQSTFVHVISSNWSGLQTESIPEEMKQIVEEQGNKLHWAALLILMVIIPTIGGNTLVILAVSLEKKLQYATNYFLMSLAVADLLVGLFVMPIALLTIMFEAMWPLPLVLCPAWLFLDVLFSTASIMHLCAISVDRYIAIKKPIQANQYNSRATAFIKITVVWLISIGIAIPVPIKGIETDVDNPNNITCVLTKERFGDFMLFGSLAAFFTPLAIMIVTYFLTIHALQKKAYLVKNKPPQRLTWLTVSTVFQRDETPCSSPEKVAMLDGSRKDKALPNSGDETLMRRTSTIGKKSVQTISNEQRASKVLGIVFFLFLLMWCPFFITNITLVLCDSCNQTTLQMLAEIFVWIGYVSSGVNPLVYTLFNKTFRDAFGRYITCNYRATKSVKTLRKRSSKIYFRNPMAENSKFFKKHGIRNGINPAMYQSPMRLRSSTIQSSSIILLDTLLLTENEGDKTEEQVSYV
In experiment [4] the target is T1, 5-HT2BR L362F^7.35. Description: Gq-mediated calcium flux FLIPR assay. The settings on record: L362F^7.35 mutant.
The target in experiment [5] is T2, 5-HT2BR (Homo sapiens, UniProt P41595). Description: Phosphoinositide. Type of experiment: cell-based.
T2 sequence (P41595 whole entry): as the sequence (P41595 whole entry L362A) above, with A362L counted along it
Experiment [6] deals with T2, 5-HT2BR. Put plainly: BRET β-arrestin2 recruitment assay.
Another experiment has as its target 5-HT2BR WT (Homo sapiens, UniProt P41595). Description: β-Arrestin2 recruitment Tango assay. (In general: Activated receptors often draw arrestin, which recruitment assays turn into a signal.)
The target of experiment [7] is T3, 5-HT2BR T140A^3.37 (Homo sapiens, UniProt P41595, T140A). Put plainly: [3H]-LSD competitive radioligand binding. The settings on record: T140A^3.37 mutant, relative to wild-type.
T3 sequence (P41595 whole entry T140A): as the sequence (P41595 whole entry L362A) above, with T140A, A362L counted along it
For experiment [8], the target named is T4, 5-HT2BR T140V^3.37 (Homo sapiens, UniProt P41595, T140V). Particulars: T140V^3.37 mutant, relative to wild-type.
T4 sequence (P41595 whole entry T140V): as the sequence (P41595 whole entry L362A) above, with T140V, A362L counted along it
Experiment [9] deals with T5, 5-HT2BR T140S^3.37 (Homo sapiens, UniProt P41595, T140S). Description: [3H]-LSD competitive radioligand binding. The settings on record: T140S^3.37 mutant, relative to wild-type.
T5 sequence (P41595 whole entry T140S): as the sequence (P41595 whole entry L362A) above, with T140S, A362L counted along it
The target of experiment [10] is T4, 5-HT2BR T140V^3.37. Put plainly: [3H]-LSD competitive radioligand binding. Particulars: T140V^3.37 mutant, relative to wild-type.
Experiment [11] has as its target T3, 5-HT2BR T140A^3.37. The settings on record: T140A^3.37 mutant, relative to wild-type.
Experiment [12] deals with T3, 5-HT2BR T140A^3.37. Description: β-Arrestin2 recruitment Tango assay. Particulars: T140A^3.37 mutant.
Experiment [13] addresses T6, 5-HT2BR A225G^5.46 (Homo sapiens, UniProt P41595, A225G). Put plainly: [3H]-LSD competitive radioligand binding. The settings on record: A225G^5.46 mutant, relative to wild-type.
Experiment [14] has as its target T7, 5-HT2BR A225S^5.46 (Homo sapiens, UniProt P41595, A225S). Put plainly: Gq-mediated calcium flux FLIPR assay.
Experiment [15] has as its target T5, 5-HT2BR T140S^3.37. Put plainly: Gq-mediated calcium flux FLIPR assay.
Experiment [16] has as its target T7, 5-HT2BR A225S^5.46. Put plainly: [3H]-LSD competitive radioligand binding. Particulars: A225S^5.46 mutant, relative to wild-type.
Experiment [17] concerns the target T6, 5-HT2BR A225G^5.46. Description: Gq-mediated calcium flux FLIPR assay. The settings on record: for Emax: read-out: Gq calcium flux Emax.
[18] abbreviates: read-out: Gq calcium flux EC50, 5-HT2BR wild-type.

pEC50: −log10 of the molar value. Several values for one entry are separate records, joined by “and”; a condition that tells them apart may be missing. Equal values may be shown once. Entries after “also recorded” stand apart in the source; their conditions may differ. Read-outs that look alike come from different tables or passages of the source.

T1 sequence (P41595 whole entry L362F): as the sequence (P41595 whole entry L362A) above, with A362F counted along it
T6 sequence (P41595 whole entry A225G): as the sequence (P41595 whole entry L362A) above, with A225G, A362L counted along it
T7 sequence (P41595 whole entry A225S): as the sequence (P41595 whole entry L362A) above, with A225S, A362L counted along it
5-HT2BR wild-type, sequence (P41595 whole entry): as the sequence (P41595 whole entry L362A) above, with A362L counted along it
5-HT2BR WT, sequence (P41595 whole entry): as the sequence (P41595 whole entry L362A) above, with A362L counted along it

Usually pEC50 stands for the negative decadic logarithm of the EC50, by convention in mol/L. In the case of `Cc1ccc2[nH]c3c(c2c1)CCNC3Cc1ccccc1Cl` (centres unmarked) [2-ClBenzyl], the “Gq calcium flux Emax” value at 5-HT2BR wild-type (5-HT2BR wild-type) is 28%. Moreover, the negative logarithm of the EC50 (pEC50) on 5-HT2BR wild-type (setting [18]) was 7.46.

Consider `CN1C[C@H](C(=O)N[C@]2(C)O[C@@]3(O)[C@@H]4CCCN4C(=O)[C@H](Cc4ccccc4)N3C2=O)C=C2c3cccc4[nH]cc(c34)C[C@H]21` [ERG, ergotamine], for which the “Gq calcium flux agonist activity” value at 5-HT2BR wild-type (5-HT2BR wild-type) is given as “Gq partial agonists”.

With `CCN(CC)C(=O)[C@@H]1C=C2c3cccc4[nH]cc(c34)C[C@H]2N(C)C1` [LSD, lysergic acid diethylamide], the “faster dissociation rate compared to 5-HT2BR WT” value on 5-HT2BR L362F^7.35 [1] is listed as “greater than 10 fold”. Moreover, the “β-arrestin recruitment agonism” value on 5-HT2BR L362F^7.35 [2] was “abolished”. Besides, the “Gq calcium flux agonist activity” value on 5-HT2BR wild-type (5-HT2BR wild-type) is given as “Gq partial agonists”. The “Gq calcium flux Emax” value at 5-HT2BR wild-type (5-HT2BR wild-type) was 82% and 79%; on 5-HT2BR L362A^7.35, 67%. At 5-HT2BR L362F^7.35 [3], the “time-dependent recruitment of β-arrestin” value was “attenuated”.

`COc1ccc(CC2NCCc3c2[nH]c2ccc(C)cc32)c(Cl)c1OC` (centres unmarked) [LY266097]: the “Gq agonist activity” value on 5-HT2BR L362F^7.35 [4] is on record as “abolished”. On 5-HT2BR wild-type (5-HT2BR wild-type), the “Gq calcium flux agonist activity” value is listed as “modest Gq partial agonism”; the “Gq calcium flux Emax” value was 62% and 54%. On 5-HT2BR wild-type (setting [18]), the negative logarithm of the EC50 (pEC50) was 7.43 and 7.39. The “Gq function via PI hydrolysis” value at 5-HT2BR [5] is recorded as “Gq partial agonism”. Also, on 5-HT2BR [6], the “β-arrestin2 antagonism by BRET” value is recorded as “potent β-arrestin2 antagonism”. Moreover, on 5-HT2BR [6] (real-time, across specific time points), the “β-arrestin2 recruitment by BRET” value is recorded as “At no tested time point did LY266097 display β-arrestin2 recruitment”. The “β-arrestin2 recruitment activity” value at 5-HT2BR WT (5-HT2BR WT) is “without detectable β-arrestin2 activity; also recorded: no β-arrestin2 recruitment activity”.

Regarding `COc1ccc(CC2NCCc3c2[nH]c2ccccc32)c(Cl)c1OC` (centres unmarked) [des-methyl LY266097 analog], the “Gq calcium flux Emax” value at 5-HT2BR wild-type (5-HT2BR wild-type) came out at 93%. Further, at 5-HT2BR wild-type (setting [18]), the negative-log EC50 (pEC50) is 7.70.

Usually Emax stands for the greatest response seen or fitted, relative to the assay's reference. Take `CC[C@@H](CO)NC(=O)[C@@H]1C=C2c3cccc4[nH]cc(c34)C[C@H]2N(C)C1` [methylergonovine]: the “binding affinity” value on 5-HT2BR T140A^3.37 [7] is reported as “significantly diminished”; at 5-HT2BR T140S^3.37 [9], “spared”; on 5-HT2BR T140V^3.37 [10], “significantly diminished”; at 5-HT2BR A225G^5.46 [13], “did not substantially affect”; on 5-HT2BR A225S^5.46 [16], “did not substantially affect”. The “Gq calcium flux agonism” value on 5-HT2BR T140V^3.37 [8] and on 5-HT2BR T140A^3.37 [11] was “significantly diminished” throughout. Besides, the “Gq calcium flux agonist activity” value at 5-HT2BR wild-type (5-HT2BR wild-type) is “Gq partial agonists”. Besides, the “Gq calcium flux Emax” value on 5-HT2BR wild-type (5-HT2BR wild-type) was 64%. Moreover, the negative-log EC50 (pEC50) at 5-HT2BR wild-type (Gq calcium flux EC50, 5-HT2BR wild-type) was 7.51 and 7.72 and 7.64 and 7.68; at 5-HT2BR A225S^5.46 [14] it was 7.82; on 5-HT2BR T140S^3.37 [15], 7.74; at 5-HT2BR A225G^5.46 [17] (Gq calcium flux EC50, A225G^5.46 mutant) it was 7.92; on 5-HT2BR WT, 8.92. For the same compound, on 5-HT2BR T140A^3.37 [12], the “β-arrestin2 recruitment” value is listed as “failed to recruit β-arrestin2”. The maximum response (Emax) at 5-HT2BR A225S^5.46 [14] (read-out: Gq calcium flux Emax) is 58%; on 5-HT2BR T140S^3.37 [15] (read-out: Gq calcium flux Emax) it was 64%; at 5-HT2BR A225G^5.46 [17], 55%.

As to `CC[C@@H](CO)NC(=O)[C@@H]1C=C2c3cccc4c3c(cn4C)C[C@H]2N(C)C1` [methysergide], on 5-HT2BR T140V^3.37 [8], the “Gq calcium flux agonism” value is reported as “failed to demonstrate any measureable Gq agonist activity”. In addition, the “Gq calcium flux agonist activity” value on 5-HT2BR wild-type (5-HT2BR wild-type) is reported as “lack of agonist activity”. Further, on 5-HT2BR A225G^5.46 [17], the Emax amounted to 54%.

As for `Cc1ccc2[nH]c3c(c2c1)CCNC3Cc1ccccc1` (centres unmarked) [unsubstituted Benzyl], on 5-HT2BR wild-type (5-HT2BR wild-type), the “Gq calcium flux agonist activity” value was “no detectible Gq agonist activity”.
